Measured values from patent publication US20260000656A1, “ANTIFUNGAL AGENTS WITH ENHANCED ACTIVITY IN ACIDIC PH” (Scynexis, Inc., priority 2017, published 2026).
Where two headings read alike, the source gives them in different places.

Tests used:
C. glabrata isolates = assay: Broth microdilution susceptibility (CLSI M27-A3) at different medium pH; assay type: cell-based, Candida glabrata; details: for MIC50 / MIC90 / MIC: Nakaseomyces glabratus, 24 h; for MIC50: read-out: MIC50; for MIC90: read-out: MIC90
Description: (§1) Ten strains each of C. glabrata and C. albicans vaginal isolates were tested. The strains were obtained from recent clinical trial patients with vulvovaginal candidiasis (VVC) prior to treatment. Candida strains were obtained from the Mycology Reference Library (MRL) at Case Western Reserve University School of Medicine, Ohio, United States.
(§2) Susceptibility testing was performed using a broth microdilution method, according to CLSI M27-A3 guidelines (CLSI. 2008. Reference Method for Broth Dilution Antifungal Susceptibility Testing of Yeasts; Approved Standard—Third Edition. Clinical and Laboratory Standards Institute, CLSI document M27-A3). Antifungals and concentrations tested were SCY-078 and micafungin (both at concentrations within the range of 0.015 to 8 μg/ml) and fluconazole (at concentrations within the range of 0.125 to 64 μg/ml). A 0.1-ml C. albicans and C. glabrata inoculum of 0.5-2.5×10^3 blastospores/ml in RPMI 1640 medium was added to each microdilution well. ATCC strains of Candida parapsilosis and Candida krusei QC isolates were also included concurrently to ensure quality control. Antifungal susceptibility testing was carried out for each isolate in RPMI 1640 at pH 7 (to mimic RPMI medium used in testing the susceptibility of yeast by the CLSI M-27A3 document), pH 5.7, and pH 4.5 (to mimic the pH of the vaginal cavity) by adjusting the pH of the media using NaOH or HCl. […] Agents Chemother., 43: 1383-1386 (1999).
(§3) […] SCY-078 powder was manufactured by Avista, Laboratories, NC. Micafungin and fluconazole were sourced from LGM Pharma.

C. albicans isolates = assay: as above; assay type: cell-based, Candida albicans; details: 50% inhibition, pH 4.5, 24 h, 10 vaginal isolates
Description: as §1, §2, §3

[1] = pH 4.5, 50% inhibition, pH 4.5, 24 h, 10 vaginal isolates
[2] = pH 4.5, 100% inhibition, pH 4.5, 24 hours, 10 isolates
[3] = pH 5.72, 50% inhibition, pH 5.72, 24 h, 10 vaginal isolates
[4] = pH 5.72, 100% inhibition, pH 5.72, 24 hours, 10 isolates
[5] = pH 7, 50% inhibition, pH 7.0, 24 h, 10 vaginal isolates
[6] = pH 7, 100% inhibition, pH 7.0, 24 hours, 10 isolates

CC(C)[C@@H](C)[C@@]1(C)CC[C@]2(C)[C@H]3CC[C@@H]4[C@@]5(COC[C@]4(C)[C@@H](OC[C@](C)(N)C(C)(C)C)[C@H](n4ncnc4-c4ccncc4)C5)C3=CC[C@@]2(C)[C@@H]1C(=O)O [SCY-078]
1 µg/mL: MIC range (C. glabrata isolates; 100% inhibition, pH 5.72, 24 hours, 10 isolates) | MIC50 (C. glabrata isolates; [4]) | MIC90 (C. glabrata isolates; [4]) | MIC (C. glabrata isolates; pH 5.72, C. glabrata MRL 32075, pH 5.72, 24 hours, read-out: MIC (100% inhibition)) | MIC (C. glabrata isolates; pH 5.72, C. glabrata MRL 32232, pH 5.72, 24 hours, read-out: MIC (100% inhibition)) | MIC (C. glabrata isolates; pH 5.72, C. glabrata MRL 32626, pH 5.72, 24 hours, read-out: MIC (100% inhibition)) | MIC (C. glabrata isolates; pH 5.72, C. glabrata MRL 32993, pH 5.72, 24 hours, read-out: MIC (100% inhibition)) | MIC (C. glabrata isolates; pH 5.72, C. glabrata MRL 33204, pH 5.72, 24 hours, read-out: MIC (100% inhibition)) | MIC (C. glabrata isolates; pH 5.72, C. glabrata MRL 33960, pH 5.72, 24 hours, read-out: MIC (100% inhibition)) | MIC (C. glabrata isolates; pH 5.72, C. glabrata MRL 33961, pH 5.72, 24 hours, read-out: MIC (100% inhibition)) | MIC (C. glabrata isolates; pH 5.72, C. glabrata MRL 34339, pH 5.72, 24 hours, read-out: MIC (100% inhibition)) | MIC (C. glabrata isolates; pH 5.72, C. glabrata MRL 34407, pH 5.72, 24 hours, read-out: MIC (100% inhibition)) | MIC (C. glabrata isolates; pH 5.72, C. glabrata MRL 34576, pH 5.72, 24 hours, read-out: MIC (100% inhibition)) | MIC50 (C. glabrata isolates; [5]) | MIC90 (C. glabrata isolates; [5]) | MIC50 (C. glabrata isolates; [6]) | MIC (C. glabrata isolates; pH 7, C. glabrata MRL 32075, pH 7.0, 24 hours, read-out: MIC (100% inhibition)) | MIC (C. glabrata isolates; pH 7, C. glabrata MRL 32232, pH 7.0, 24 hours, read-out: MIC (50% inhibition)) | MIC (C. glabrata isolates; pH 7, C. glabrata MRL 32232, pH 7.0, 24 hours, read-out: MIC (100% inhibition)) | MIC (C. glabrata isolates; pH 7, C. glabrata MRL 32626, pH 7.0, 24 hours, read-out: MIC (100% inhibition)) | MIC (C. glabrata isolates; pH 7, C. glabrata MRL 32993, pH 7.0, 24 hours, read-out: MIC (100% inhibition)) | MIC (C. glabrata isolates; pH 7, C. glabrata MRL 33204, pH 7.0, 24 hours, read-out: MIC (50% inhibition)) | MIC (C. glabrata isolates; pH 7, C. glabrata MRL 33204, pH 7.0, 24 hours, read-out: MIC (100% inhibition)) | MIC (C. glabrata isolates; pH 7, C. glabrata MRL 33960, pH 7.0, 24 hours, read-out: MIC (100% inhibition)) | MIC (C. glabrata isolates; pH 7, C. glabrata MRL 33961, pH 7.0, 24 hours, read-out: MIC (50% inhibition)) | MIC (C. glabrata isolates; pH 7, C. glabrata MRL 33961, pH 7.0, 24 hours, read-out: MIC (100% inhibition)) | MIC (C. glabrata isolates; pH 7, C. glabrata MRL 34339, pH 7.0, 24 hours, read-out: MIC (50% inhibition)) | MIC (C. glabrata isolates; pH 7, C. glabrata MRL 34339, pH 7.0, 24 hours, read-out: MIC (100% inhibition)) | MIC (C. glabrata isolates; pH 7, C. glabrata MRL 34407, pH 7.0, 24 hours, read-out: MIC (50% inhibition)) | MIC (C. glabrata isolates; pH 7, C. glabrata MRL 34576, pH 7.0, 24 hours, read-out: MIC (50% inhibition))
2 µg/mL: MIC90 (C. glabrata isolates; [6]) | MIC (C. glabrata isolates; pH 7, C. glabrata MRL 34407, pH 7.0, 24 hours, read-out: MIC (100% inhibition)) | MIC (C. glabrata isolates; pH 7, C. glabrata MRL 34576, pH 7.0, 24 hours, read-out: MIC (100% inhibition))
0.5 to 1 µg/mL: MIC range (C. glabrata isolates; 50% inhibition, pH 7.0, 24 h, 10 vaginal isolates)
0.063 to 0.125 µg/mL: MIC range (C. glabrata isolates; 100% inhibition, pH 4.5, 24 hours, 10 isolates)
0.5 µg/mL: MIC range (C. glabrata isolates; 50% inhibition, pH 5.72, 24 h, 10 vaginal isolates) | MIC50 (C. glabrata isolates; [3]) | MIC90 (C. glabrata isolates; [3]) | MIC (C. glabrata isolates; pH 5.72, C. glabrata MRL 32075, pH 5.72, 24 hours, read-out: MIC (50% inhibition)) | MIC (C. glabrata isolates; pH 5.72, C. glabrata MRL 32232, pH 5.72, 24 hours, read-out: MIC (50% inhibition)) | MIC (C. glabrata isolates; pH 5.72, C. glabrata MRL 32626, pH 5.72, 24 hours, read-out: MIC (50% inhibition)) | MIC (C. glabrata isolates; pH 5.72, C. glabrata MRL 32993, pH 5.72, 24 hours, read-out: MIC (50% inhibition)) | MIC (C. glabrata isolates; pH 5.72, C. glabrata MRL 33204, pH 5.72, 24 hours, read-out: MIC (50% inhibition)) | MIC (C. glabrata isolates; pH 5.72, C. glabrata MRL 33960, pH 5.72, 24 hours, read-out: MIC (50% inhibition)) | MIC (C. glabrata isolates; pH 5.72, C. glabrata MRL 33961, pH 5.72, 24 hours, read-out: MIC (50% inhibition)) | MIC (C. glabrata isolates; pH 5.72, C. glabrata MRL 34339, pH 5.72, 24 hours, read-out: MIC (50% inhibition)) | MIC (C. glabrata isolates; pH 5.72, C. glabrata MRL 34407, pH 5.72, 24 hours, read-out: MIC (50% inhibition)) | MIC (C. glabrata isolates; pH 5.72, C. glabrata MRL 34576, pH 5.72, 24 hours, read-out: MIC (50% inhibition)) | MIC (C. glabrata isolates; pH 7, C. glabrata MRL 32075, pH 7.0, 24 hours, read-out: MIC (50% inhibition)) | MIC (C. glabrata isolates; pH 7, C. glabrata MRL 32626, pH 7.0, 24 hours, read-out: MIC (50% inhibition)) | MIC (C. glabrata isolates; pH 7, C. glabrata MRL 32993, pH 7.0, 24 hours, read-out: MIC (50% inhibition)) | MIC (C. glabrata isolates; pH 7, C. glabrata MRL 33960, pH 7.0, 24 hours, read-out: MIC (50% inhibition))
0.125 µg/mL: MIC50 (C. glabrata isolates; [2]) | MIC90 (C. glabrata isolates; [2]) | MIC (C. glabrata isolates; pH 4.5, C. glabrata MRL 32075, pH 4.5, 24 hours, read-out: MIC (100% inhibition)) | MIC (C. glabrata isolates; pH 4.5, C. glabrata MRL 32232, pH 4.5, 24 hours, read-out: MIC (100% inhibition)) | MIC (C. glabrata isolates; pH 4.5, C. glabrata MRL 32626, pH 4.5, 24 hours, read-out: MIC (100% inhibition)) | MIC (C. glabrata isolates; pH 4.5, C. glabrata MRL 34339, pH 4.5, 24 hours, read-out: MIC (100% inhibition)) | MIC (C. glabrata isolates; pH 4.5, C. glabrata MRL 34407, pH 4.5, 24 hours, read-out: MIC (100% inhibition)) | MIC (C. glabrata isolates; pH 4.5, C. glabrata MRL 34576, pH 4.5, 24 hours, read-out: MIC (100% inhibition))
0.063 µg/mL: MIC50 (C. glabrata isolates; [1]) | MIC90 (C. glabrata isolates; [1]) | MIC (C. glabrata isolates; pH 4.5, C. glabrata MRL 32075, pH 4.5, 24 hours, read-out: MIC (50% inhibition)) | MIC (C. glabrata isolates; pH 4.5, C. glabrata MRL 32232, pH 4.5, 24 hours, read-out: MIC (50% inhibition)) | MIC (C. glabrata isolates; pH 4.5, C. glabrata MRL 32626, pH 4.5, 24 hours, read-out: MIC (50% inhibition)) | MIC (C. glabrata isolates; pH 4.5, C. glabrata MRL 32993, pH 4.5, 24 hours, read-out: MIC (100% inhibition)) | MIC (C. glabrata isolates; pH 4.5, C. glabrata MRL 33204, pH 4.5, 24 hours, read-out: MIC (100% inhibition)) | MIC (C. glabrata isolates; pH 4.5, C. glabrata MRL 33960, pH 4.5, 24 hours, read-out: MIC (100% inhibition)) | MIC (C. glabrata isolates; pH 4.5, C. glabrata MRL 33961, pH 4.5, 24 hours, read-out: MIC (50% inhibition)) | MIC (C. glabrata isolates; pH 4.5, C. glabrata MRL 33961, pH 4.5, 24 hours, read-out: MIC (100% inhibition)) | MIC (C. glabrata isolates; pH 4.5, C. glabrata MRL 34339, pH 4.5, 24 hours, read-out: MIC (50% inhibition)) | MIC (C. glabrata isolates; pH 4.5, C. glabrata MRL 34407, pH 4.5, 24 hours, read-out: MIC (50% inhibition)) | MIC (C. glabrata isolates; pH 4.5, C. glabrata MRL 34576, pH 4.5, 24 hours, read-out: MIC (50% inhibition))
1 to 2 µg/mL: MIC range (C. glabrata isolates; 100% inhibition, pH 7.0, 24 hours, 10 isolates)
0.031 to 0.063 µg/mL: MIC range (C. glabrata isolates; 50% inhibition, pH 4.5, 24 h, 10 vaginal isolates)
< 0.016 µg/mL: MIC50 (C. albicans isolates)
16 fold: reduction in MIC50 at pH 4.5 compared to the MIC50 at pH 7.0 (C. glabrata isolates; C. glabrata isolates)
0.031 µg/mL: MIC (C. glabrata isolates; pH 4.5, C. glabrata MRL 32993, pH 4.5, 24 hours, read-out: MIC (50% inhibition)) | MIC (C. glabrata isolates; pH 4.5, C. glabrata MRL 33204, pH 4.5, 24 hours, read-out: MIC (50% inhibition)) | MIC (C. glabrata isolates; pH 4.5, C. glabrata MRL 33960, pH 4.5, 24 hours, read-out: MIC (50% inhibition))
